# Measurements taken from patent US20180200257A1, “METHODS FOR THE TREATMENT OF INFLAMMATORY DISORDERS” (Galapagos NV, priority 2015, published 2018).
# System: subjects with moderately to severely active RA who have an inadequate response to methotrexate (MTX)
# Experiment: Study 1 (add-on to MTX) - Aspartate Aminotransferase (AST) levels
# Type: in vivo, human
# Procedure: Double-blind, placebo-controlled add on study in subjects with moderately to severely active RA who have an inadequate response to methotrexate (MTX) (oral or parenteral).
# 595 subjects randomized to one of 6 dose regimens of Compound 1 (dosed as [Compound 1:HCl:3H2O]) (3 dose levels administered either once or twice daily) or placebo on top of each subject's stable dose of MTX.
# Compound 1 (dosed as [Compound 1:HCl:3H2O]) is dosed for twelve weeks once daily (q.d.) (50 mg, 100 mg or 200 mg) or twice daily (b.i.d.) (25 mg, 50 mg or 100 mg); or placebo.
# At Week 12, the subjects on placebo who have not achieved 20% improvement in swollen joint count (SJC66) and tender joint count (TJC68) are re-randomized automatically to receive Compound 1 (dosed as a [Compound 1:HCl:3H2O]) either at 100 mg q.d. or 50 mg b.i.d. doses in a blinded fashion; subjects on 50 mg q.d. who have not achieved 20% improvement in SJC66 and TJC68 will be assigned to 100 mg q.d. and subjects on 25 mg b.i.d. that have not achieved a 20% improvement in SJC66 and TJC68 will be assigned to 50 mg b.i.d. Subjects who switch treatment at week 12 are handled as if they discontinued at week 12 for the purpose of statistical analysis, whereas subjects in the other groups will maintain their randomized treatment until Week 24.
# AST levels determination is available at Quest Diagnostics, Clinical Trials, Quest House, 125-135 Staines Road, Hounslow, Middlesex, TW3 3JB, United Kingdom under Catalogue n#84450. For Study 3, the data are obtained at BARC Europe, 3B,Industrie Park, Zwijnaarde, B-9052 Ghent, Belgium.
# AST catalyzes the transamination of aspartate and 2-oxoglutarate, forming L-glutamate and oxalacetate. The oxalacetate is reduced to L-malate by malate dehydrogenase, whilst NADH is converted to NAD+, measured spectrophotometrically. Guidelines for the AST value have been issued by the association for Clinical Biochemistry and Laboratory Medicine, 130-132 Tooley Street LONDON SE1 2TU, united Kingdom, wherein the AST value should be below 34 U/l in Female and below 45 U/L in male. As disclosed in the respective study protocols for Study 1 or 2, at week 12, depending on the outcome of their treatment, the subjects may be continued in their initial treatment course, or reassigned to another treatment group in a randomized blinded fashion until week 24. Therefore, the number of subjects (N) for the period of either 12 weeks, or 24 weeks is provided to reflect this redistribution at week 12.
# [1] = 12 weeks results, 50 mg q.d., week 1
# [2] = 12 weeks results, 50 mg q.d., week 2
# [3] = 12 weeks results, 50 mg q.d., week 4
# [4] = 12 weeks results, 50 mg q.d., week 8
# [5] = 12 weeks results, 50 mg q.d., week 12
# [6] = 12 weeks results, 100 mg q.d., week 1
# [7] = 12 weeks results, 100 mg q.d., week 2
# [8] = 12 weeks results, 100 mg q.d., week 4
# [9] = 12 weeks results, 100 mg q.d., week 8
# [10] = 12 weeks results, 100 mg q.d., week 12
# [11] = 12 weeks results, 200 mg q.d., week 1
# [12] = 12 weeks results, 200 mg q.d., week 2
# [13] = 12 weeks results, 200 mg q.d., week 4
# [14] = 12 weeks results, 200 mg q.d., week 8
# [15] = 12 weeks results, 200 mg q.d., week 12
# [16] = 12 weeks results, 2 × 25 mg b.i.d., week 1
# [17] = 12 weeks results, 2 × 25 mg b.i.d., week 2
# [18] = 12 weeks results, 2 × 25 mg b.i.d., week 4
# [19] = 12 weeks results, 2 × 25 mg b.i.d., week 8
# [20] = 12 weeks results, 2 × 25 mg b.i.d., week 12
# [21] = 12 weeks results, 2 × 50 mg b.i.d., week 1
# [22] = 12 weeks results, 2 × 50 mg b.i.d., week 2
# [23] = 12 weeks results, 2 × 50 mg b.i.d., week 4
# [24] = 12 weeks results, 2 × 50 mg b.i.d., week 8
# [25] = 12 weeks results, 2 × 50 mg b.i.d., week 12
# [26] = 12 weeks results, 2 × 100 mg b.i.d., week 1
# [27] = 12 weeks results, 2 × 100 mg b.i.d., week 2
# [28] = 12 weeks results, 2 × 100 mg b.i.d., week 4
# [29] = 12 weeks results, 2 × 100 mg b.i.d., week 8
# [30] = 12 weeks results, 2 × 100 mg b.i.d., week 12
# [31] = 24 weeks results, continued 25 mg b.i.d., week 1
# [32] = 24 weeks results, continued 25 mg b.i.d., week 2
# [33] = 24 weeks results, continued 25 mg b.i.d., week 4
# [34] = 24 weeks results, continued 25 mg b.i.d., week 8
# [35] = 24 weeks results, continued 25 mg b.i.d., week 12
# [36] = 24 weeks results, continued 25 mg b.i.d., week 16
# [37] = 24 weeks results, continued 25 mg b.i.d., week 20
# [38] = 24 weeks results, continued 25 mg b.i.d., week 24
# [39] = 24 weeks results, continued 50 mg b.i.d., week 1
# [40] = 24 weeks results, continued 50 mg b.i.d., week 2
# [41] = 24 weeks results, continued 50 mg b.i.d., week 4
# [42] = 24 weeks results, continued 50 mg b.i.d., week 8
# [43] = 24 weeks results, continued 50 mg b.i.d., week 12
# [44] = 24 weeks results, continued 50 mg b.i.d., week 16
# [45] = 24 weeks results, continued 50 mg b.i.d., week 20
# [46] = 24 weeks results, continued 50 mg b.i.d., week 24
# [47] = 24 weeks results, continued 50 mg q.d., week 1
# [48] = 24 weeks results, continued 50 mg q.d., week 2
# [49] = 24 weeks results, continued 50 mg q.d., week 4
# [50] = 24 weeks results, continued 50 mg q.d., week 8
smiles,measurement,setting,value
"O=C(Nc1nc2cccc(-c3ccc(CN4CCS(=O)(=O)CC4)cc3)n2n1)C1CC1 [Compound 1, cyclopropanecarboxylic acid {5-[4-(1,1-dioxo-thiomorpholin-4-ylmethyl)-phenyl]-[1,2,4]triazolo[1,5-a]pyridin-2-yl}-amide]",Study 1 - AST Mean CFB,[1],1 IU/L
same,Study 1 - AST Mean percentage CFB,[1],7%
same,Study 1 - AST Mean CFB,[2],0 IU/L
same,Study 1 - AST Mean percentage CFB,[2],5%
same,Study 1 - AST Mean CFB,[3],0 IU/L
same,Study 1 - AST Mean percentage CFB,[3],5%
same,Study 1 - AST Mean CFB,[4],0 IU/L
same,Study 1 - AST Mean percentage CFB,[4],7%
same,Study 1 - AST Mean CFB,[5],1 IU/L
same,Study 1 - AST Mean percentage CFB,[5],10%
same,Study 1 - AST Mean CFB,[6],3 IU/L
same,Study 1 - AST Mean percentage CFB,[6],14%
same,Study 1 - AST Mean CFB,[7],1 IU/L
same,Study 1 - AST Mean percentage CFB,[7],9%
same,Study 1 - AST Mean CFB,[8],2 IU/L
same,Study 1 - AST Mean percentage CFB,[8],11%
same,Study 1 - AST Mean CFB,[9],3 IU/L
same,Study 1 - AST Mean percentage CFB,[9],17%
same,Study 1 - AST Mean CFB,[10],2 IU/L
same,Study 1 - AST Mean percentage CFB,[10],16%
same,Study 1 - AST Mean CFB,[11],3 IU/L
same,Study 1 - AST Mean percentage CFB,[11],16%
same,Study 1 - AST Mean CFB,[12],2 IU/L
same,Study 1 - AST Mean percentage CFB,[12],13%
same,Study 1 - AST Mean CFB,[13],3 IU/L
same,Study 1 - AST Mean percentage CFB,[13],19%
same,Study 1 - AST Mean CFB,[14],5 IU/L
same,Study 1 - AST Mean percentage CFB,[14],27%
same,Study 1 - AST Mean CFB,[15],5 IU/L
same,Study 1 - AST Mean percentage CFB,[15],29%
same,Study 1 - AST Mean CFB,[16],0 IU/L
same,Study 1 - AST Mean percentage CFB,[16],3%
same,Study 1 - AST Mean CFB,[17],0 IU/L
same,Study 1 - AST Mean percentage CFB,[17],6%
same,Study 1 - AST Mean CFB,[18],0 IU/L
same,Study 1 - AST Mean percentage CFB,[18],6%
same,Study 1 - AST Mean CFB,[19],0 IU/L
same,Study 1 - AST Mean percentage CFB,[19],10%
same,Study 1 - AST Mean CFB,[20],2 IU/L
same,Study 1 - AST Mean percentage CFB,[20],14%
same,Study 1 - AST Mean CFB,[21],1 IU/L
same,Study 1 - AST Mean percentage CFB,[21],6%
same,Study 1 - AST Mean CFB,[22],0 IU/L
same,Study 1 - AST Mean percentage CFB,[22],6%
same,Study 1 - AST Mean CFB,[23],2 IU/L
same,Study 1 - AST Mean percentage CFB,[23],14%
same,Study 1 - AST Mean CFB,[24],2 IU/L
same,Study 1 - AST Mean percentage CFB,[24],14%
same,Study 1 - AST Mean CFB,[25],2 IU/L
same,Study 1 - AST Mean percentage CFB,[25],17%
same,Study 1 - AST Mean CFB,[26],1 IU/L
same,Study 1 - AST Mean percentage CFB,[26],10%
same,Study 1 - AST Mean CFB,[27],2 IU/L
same,Study 1 - AST Mean percentage CFB,[27],14%
same,Study 1 - AST Mean CFB,[28],3 IU/L
same,Study 1 - AST Mean percentage CFB,[28],19%
same,Study 1 - AST Mean CFB,[29],2 IU/L
same,Study 1 - AST Mean percentage CFB,[29],17%
same,Study 1 - AST Mean CFB,[30],3 IU/L
same,Study 1 - AST Mean percentage CFB,[30],20%
same,Study 1 - AST Mean CFB,[31],0.7 IU/L
same,Study 1 - AST Mean percentage CFB,[31],6.7%
same,Study 1 - AST Mean CFB,[32],0.7 IU/L
same,Study 1 - AST Mean percentage CFB,[32],7.1%
same,Study 1 - AST Mean CFB,[33],1.0 IU/L
same,Study 1 - AST Mean percentage CFB,[33],8.6%
same,Study 1 - AST Mean CFB,[34],1.6 IU/L
same,Study 1 - AST Mean percentage CFB,[34],14.0%
same,Study 1 - AST Mean CFB,[35],2.2 IU/L
same,Study 1 - AST Mean percentage CFB,[35],16.4%
same,Study 1 - AST Mean CFB,[36],1.4 IU/L
same,Study 1 - AST Mean percentage CFB,[36],12.6%
same,Study 1 - AST Mean CFB,[37],1.1 IU/L
same,Study 1 - AST Mean percentage CFB,[37],10.8%
same,Study 1 - AST Mean CFB,[38],1.7 IU/L
same,Study 1 - AST Mean percentage CFB,[38],14.0%
same,Study 1 - AST Mean CFB,[39],0.5 IU/L
same,Study 1 - AST Mean percentage CFB,[39],5.7%
same,Study 1 - AST Mean CFB,[40],0.4 IU/L
same,Study 1 - AST Mean percentage CFB,[40],5.5%
same,Study 1 - AST Mean CFB,[41],1.8 IU/L
same,Study 1 - AST Mean percentage CFB,[41],14.4%
same,Study 1 - AST Mean CFB,[42],1.7 IU/L
same,Study 1 - AST Mean percentage CFB,[42],14.0%
same,Study 1 - AST Mean CFB,[43],2.4 IU/L
same,Study 1 - AST Mean percentage CFB,[43],17.1%
same,Study 1 - AST Mean CFB,[44],1.9 IU/L
same,Study 1 - AST Mean percentage CFB,[44],13.7%
same,Study 1 - AST Mean CFB,[45],3.4 IU/L
same,Study 1 - AST Mean percentage CFB,[45],20.7%
same,Study 1 - AST Mean CFB,[46],1.5 IU/L
same,Study 1 - AST Mean percentage CFB,[46],11.1%
same,Study 1 - AST Mean CFB,[47],0.8 IU/L
same,Study 1 - AST Mean percentage CFB,[47],7.5%
same,Study 1 - AST Mean CFB,[48],−0.2 IU/L
same,Study 1 - AST Mean percentage CFB,[48],5.7%
same,Study 1 - AST Mean CFB,[49],−0.4 IU/L
same,Study 1 - AST Mean percentage CFB,[49],5.2%
same,Study 1 - AST Mean CFB,[50],0.4 IU/L
same,Study 1 - AST Mean percentage CFB,[50],9.0%
